Measured values reported in ChEMBL document CHEMBL3045092, “Synthesis and Fungicidal Activity of 2-Imino-3-(4-arylthiazol-2-yl)-thiazolidin-4-ones and Their 5-Arylidene Derivatives” (2000).

Columns and labels:
Assay type in all cases: functional
Conditions in all cases: read-out: GI
[1] = test system: Pyricularia oryzae; experiment: Fungicidal activity against Magnaporthe oryzae assessed as growth inhibition at 50 ppm after 48 hr relative to untreated control
[2] = test system: Botrytis cinerea; experiment: Fungicidal activity against Botryotinia fuckeliana assessed as growth inhibition at 50 ppm after 48 hr relative to untreated control
[3] = test system: Pythium aphanidermatum; experiment: Fungicidal activity against Pythium aphanidermatum assessed as growth inhibition at 50 ppm after 48 hr relative to untreated control
[4] = test system: Pleurotus ostreatus; experiment: Fungicidal activity against Pleurotus ostreatus assessed as growth inhibition at 50 ppm after 48 hr relative to untreated control
[5] = test system: Fusarium graminearum; experiment: Fungicidal activity against Fusarium graminearum assessed as growth inhibition at 50 ppm after 48 hr relative to untreated control
[6] = test system: Gaeumannomyces graminis; experiment: Fungicidal activity against Gaeumannomyces graminis assessed as growth inhibition at 50 ppm after 48 hr relative to untreated control
[7] = test system: Aspergillus niger; experiment: Fungicidal activity against Aspergillus niger assessed as growth inhibition at 50 ppm after 48 hr relative to untreated control

| SMILES | inhibition of growth at 50 ppm [1] [%] | inhibition of growth at 50 ppm [2] [%] | inhibition of growth at 50 ppm [3] [%] | inhibition of growth at 50 ppm [4] [%] | inhibition of growth at 50 ppm [5] [%] | inhibition of growth at 50 ppm [6] [%] | inhibition of growth at 50 ppm [7] [%] |
| --- | --- | --- | --- | --- | --- | --- | --- |
| N=C1S/C(=C\c2ccccc2[N+](=O)[O-])C(=O)N1c1nc(-c2ccc([N+](=O)[O-])cc2)cs1 | 3.2 | 33.3 | 16.3 | 7.2 | 24.7 | 0 | 62.8 |
| N=C1S/C(=C\c2cccc([N+](=O)[O-])c2)C(=O)N1c1nc(-c2ccccc2)cs1 | 3.2 | 0 | 25 | 5.9 | 20.6 | 0 | 49.7 |
| N=C1S/C(=C\c2ccccc2Cl)C(=O)N1c1nc(-c2ccc(Cl)cc2)cs1 | 0 | 0 | 46.2 | 0 | 31.8 | 0 | 40.8 |
| N=C1S/C(=C\c2ccccc2Cl)C(=O)N1c1nc(-c2ccc([N+](=O)[O-])cc2)cs1 | 2.1 | 60.8 | 28 | 0 | 28 | 37.1 | 42.7 |
| N=C1S/C(=C\c2ccccc2)C(=O)N1c1nc(-c2cc(F)c(Cl)cc2Cl)cs1 | 4.1 | 28.7 | 0 | 11.5 | 38.1 | 0 | 47.7 |
| N=C1S/C(=C\c2ccccc2Cl)C(=O)N1c1nc(-c2ccccc2)cs1 | 0 | 27.5 | 17.2 | 0 | 37.4 | 0 | 23.6 |
| N=C1SCC(=O)N1c1nc(-c2ccc(Cl)cc2)cs1 | 58.8 | 0 | 3.8 | 72.4 | 29.7 | 51.3 | 52.3 |
| N=C1S/C(=C\c2cccc([N+](=O)[O-])c2)C(=O)N1c1nc(-c2cc(F)c(Cl)cc2Cl)cs1 | 11.7 | 24.7 | 33.8 | 32.6 | 45.4 | 0 | 69.3 |
| N=C1SCC(=O)N1c1nc(-c2cc(F)c(Cl)cc2Cl)cs1 | 76.3 | 38.2 | 12.5 | 95 | 38.8 | 91.3 | 58.8 |
| N=C1SCC(=O)N1c1nc(-c2ccccc2)cs1 | 58.8 | 3.5 | 8.8 | 82.6 | 21.1 | 60 | 54.3 |
| N=C1SCC(=O)N1c1nc(-c2ccc(Cl)cc2Cl)cs1 | 79.4 | 0 | 0 | 97.2 | 48.6 | 86.7 | 62.8 |
| N=C1S/C(=C\c2ccccc2[N+](=O)[O-])C(=O)N1c1nc(-c2cc(F)c(Cl)cc2Cl)cs1 | 50.4 | 2 | 0 | 15.2 | 48.5 | 0 | 49.7 |
| N=C1S/C(=C\c2ccccc2[N+](=O)[O-])C(=O)N1c1nc(-c2ccc(Cl)cc2)cs1 | 14.8 | 66.7 | 12.5 | 84.8 | 58.8 | 0 | 60.8 |
| N=C1S/C(=C\c2ccccc2[N+](=O)[O-])C(=O)N1c1nc(-c2ccccc2)cs1 | 20.2 | 64.7 | 3.8 | 84.1 | 61.9 | 0 | 54.3 |
| N=C1S/C(=C\c2cccc([N+](=O)[O-])c2)C(=O)N1c1nc(-c2ccc(Cl)cc2)cs1 | 26.5 | 71.3 | 16.3 | 84.1 | 61.9 | 0 | 58.8 |
| N=C1SCC(=O)N1c1nc(-c2ccc([N+](=O)[O-])cc2)cs1 | 38.1 | 0 | 8.8 | 12.4 | 2.2 | 26.7 | 56.2 |
| N=C1S/C(=C\c2cccc([N+](=O)[O-])c2)C(=O)N1c1nc(-c2ccc([N+](=O)[O-])cc2)cs1 | 0 | 4.7 | 0 | 29.8 | 51.6 | 0 | 52.3 |
